Several values for one entry are separate records, joined by “and”; a condition that tells them apart may be missing. Equal entries are not always repeated. Where two headings read alike, the source gives them in different places. Values belong to the compound of their own block, whether it stands above or below them.
Experiments:
[1] = Open-label, three-way, sequential, cross-over pharmacokinetic interaction study, plasma, non-compartmental analysis; assay type: in vivo, human (healthy Thai adults); conditions: for AUC0–12h / Tmax / Cmax / AUC(0-inf) / Vd/F / half-life / AUC(0-t): plasma; for AUC0–12h / Tmax / Cmax / AUC(0-inf) / Vd/F / half-life / AUC(0-t) / CL/F: median (95 % CI); for Vd/F: read-out: Vz/F; for half-life: read-out: t1/2z (converted); for extrapolated AUC from the last blood sampling time to infinity (AUCt−∞) / inter-individual variability of plasma concentrations / inter-individual variability in AUC0−24h: in vivo; for t1/2z GMR (90 % CI): geometric mean ratio; for plasma concentration 1 h post-dose on Day 3: median
Description: This was an open-label, three-way, sequential, cross-over, pharmacokinetic study in healthy adult volunteers. […] Written informed consent for study participation was obtained from each subject before study. […] Consenting adults were screened for eligibility and a physical examination, electrocardiogram (ECG), and laboratory safety tests (haematology, biochemistry, urinalysis, and pregnancy status) were performed. Figure 1 summarizes the study design. The pharmacokinetic sampling was performed sequentially on three occasions. […] Ltd., China). Mefloquine doses were given as three tablets on Day 1 and two tablets on Day 2 (250 mg mefloquine per tablet, manufactured by Atlantic Pharmaceutical Ltd., China). There was a 2-months wash-out period between Period 1 and Period 2. Period 2: subjects received oral doses of LPV/r (400/100 mg), twice daily, for 14 days (27 doses). There was no washout between Period 2 and Period 3. […] Immediately after collection, all blood samples were centrifuged (1200×g, 10 min) and the plasma samples were stored at -80 °C until analysis. […] University. […] An Agilent 1260 LC system (Agilent Technologies, CA, USA) coupled with an API 5000 triple quadrupole mass spectrometer (Applied Biosystems/MDS SCIEX, Foster City, USA), with a TurboVTM ionization source (TIS) interface operated in the positive ion mode, was used for the multiple reaction monitoring LC-MS/MS analysis. […] Nitrogen gas was supplied from an AB-3G (Peak Scientific, Inchinnan, UK). […] Chromatographic separation was performed using an […] XDB C18 column (5 μm, 4.6 mm × 150 mm; Thermo Fisher Scientific, MA, USA) protected with an Eclipse XDB-C8 guard column (Thermo Electron Corporation, MA, USA). The gradient mobile phase consisted of a mixture of 10 mM ammonium acetate with 0.1 % glacial acetic acid and acetonitrile running at a flow rate of 0.7 mL/min. Total run time was 12 min. […] Measurement of plasma concentrations of mefloquine was performed using high performance liquid chromatography (HPLC) according to the method of Karbwang et al. with modifications. Chromatographic separation was performed on a Hypersil ODS column (5 μm, 4.6 mm × 250 mm; Thermo Fisher Scientific, MA, USA) protected with an Eclipse XDB-C8 guard column (Thermo Electron Corporation, MA, USA). […] The UV detector was set at the wavelength of 220 nm. […] This laboratory participates in the NIAID Clinical Pharmacology Quality Assurance Programme Proficiency Testing. Pharmacokinetic parameters were determined using a non-compartmental analysis using WinNonLin software (version 6.3, […], USA). […] The Cmax (maximum concentration); tmax (time of maximum concentration) were determined by direct inspection of the plasma concentration-time data. […] The extrapolated AUC from the last sampling time to infinity was estimated from Ct/elimination rate constant (lz). lz was calculated from at least five concentration-time points of elimination phase. Apparent oral clearance (CL/F) was calculated as dose/AUC0-∞. Volume of distribution (Vz/F) was calculated as CL/F/lz, and the terminal half-life (t1/2z) was calculated as 0.693/lz. […] Statistical analysis of the data was performed using SPSS version 16.0 (Gorichem, The Netherlands). Pharmacokinetic parameters are presented as median and 95 % confidence intervals (95 % CI). […] Comparison of the frequency of subjects with adverse events between the two groups was performed using a Chi-square test. Statistical significance level was set at a = 0.05 for all tests.

[2] = previous report, healthy Thai volunteers; cited from earlier work
[3] = LPV/r 400/100 mg twice daily alone (Period 2)
[4] = LPV/r with 3-day artesunate-mefloquine (Period 3)
[5] = both sexes, human, oral, LPV/r 400/100 mg twice daily alone (Period 2), read-out: Cmax
[6] = both sexes, human, oral, LPV/r 400/100 mg twice daily alone (Period 2)
[7] = both sexes, human, oral, LPV/r with 3-day artesunate-mefloquine (Period 3), read-out: AUC0–12h
[8] = both sexes, human, oral, LPV/r with 3-day artesunate-mefloquine (Period 3)
[9] = in the presence of artesunate-mefloquine vs LPV/r alone
[10] = with artesunate-mefloquine vs LPV/r alone
[11] = both sexes, human, oral, 3-day artesunate-mefloquine with LPV/r 400/100 mg twice a day (Period 3), read-out: tmax
[12] = both sexes, human, oral, 3-day artesunate-mefloquine alone (Period 1), read-out: AUC0–24h
[13] = both sexes, human, oral, 3-day artesunate-mefloquine with LPV/r (Period 3), read-out: AUC0–24h
[14] = both sexes, human, oral, 3-day artesunate-mefloquine with LPV/r (Period 3), read-out: Cmax
[15] = both sexes, human, po, 3-day artesunate-mefloquine alone (Period 1), oral, read-out: Cmax
[16] = both sexes, human, 3-day artesunate-mefloquine alone (Period 1), oral, read-out: tmax
[17] = in the presence of LPV/r vs alone
[18] = 750 and 500 mg 24 h apart vs previous study in healthy Thai subjects, 750 and 500 mg 6 h apart (ref 47, 48)
[19] = both sexes, human, oral, 3-day artesunate-mefloquine alone (Period 1)
[20] = both sexes, human, oral, 3-day artesunate-mefloquine with LPV/r (Period 3)
[21] = in the presence of steady-state LPV/r vs alone

Compound: C[C@H]1[C@H](OC(=O)CCC(=O)O)O[C@@H]2O[C@@]3(C)CC[C@H]4[C@H](C)CC[C@@H]1[C@@]24OO3 [Artesunate, artesunate]
Tmax [1, 11]: 1 h | AUC(0-t) [1, 12]: 0.2 µg·h/mL | AUC(0-t) [1, 13]: 0.24 µg·h/mL | Cmax [1, 14]: 140 ng/mL | Cmax [1, 15]: 110 ng/mL | Tmax [1, 16]: 1 h | 90 % CI of the GMR of AUC0−24h vs bioequivalent range of 0.8-1.25 ([1]; combination vs alone): outside the acceptable bioequivalent range | increase in Cmax and systemic exposure [1, 17]: 45–80% | inter-individual variability in AUC0−24h [1]: 54.4%

Compound: C[C@H]1[C@@H](O)O[C@@H]2O[C@@]3(C)CC[C@H]4[C@H](C)CC[C@@H]1[C@@]24OO3 [Dihydroartemisinin, dihydroartemisinin]
reduction in the AUC ([1]; LPV/r co-administration): 50% | plasma concentration 1 h post-dose on Day 3 ([1]; artesunate given with LPV/r): 310 ng/mL | plasma concentration 1 h post-dose on Day 3 ([1]; artesunate-mefloquine without LPV/r): 580 ng/mL | Tmax [1, 11]: 2 h | AUC(0-t) [1, 12]: 2.37 µg·h/mL | half-life [1, 19]: 4.02 h | AUC(0-inf) [1, 19]: 2.68 µg·h/mL | AUC(0-t) [1, 13]: 0.99 µg·h/mL | Cmax [1, 14]: 310 ng/mL | half-life [1, 20]: 9.99 h | AUC(0-inf) [1, 20]: 1.37 µg·h/mL | Cmax [1, 15]: 580 ng/mL | Tmax [1, 16]: 2 h | 90 % CI of the GMR of AUC0−24h vs bioequivalent range of 0.8-1.25 ([1]; combination vs alone): outside the acceptable bioequivalent range | 90 % CI of the GMR of Cmax vs bioequivalent range of 0.8-1.25 ([1]; combination vs alone): outside the acceptable bioequivalent range | decrease in AUC0-24 h (as nmol h/mL) relative to the increase in artesunate AUC ([1]; in the presence of LPV/r): about 180% | decrease in AUC0−∞ [1, 17]: ~48.8% | decrease in Cmax [1, 17]: about 46.6% | decrease in AUC0−24h [1, 21]: ~58.2% | increase in t1/2z [1, 21]: 148.5% | extrapolated AUC from the last blood sampling time to infinity (AUCt−∞) [1]: less than 5% | inter-individual variability in AUC0−24h [1]: 80.2% | t1/2z GMR (90 % CI) ([1]; with LPV/r vs alone): 1.89 (1.00, 3.58) | t1/2z [2]: 0.74 h

Second part, led by results:

AUC0–12h [1, 3]: 103.32 (82.62, 124.01) μg h/mL | Tmax [1, 3]: 4.0 (3.1, 4.8) h | Cmax [1, 4]: 9.62 (7.99, 11.24) μg/mL | Cmax [1, 5]: 12400 ng/mL | AUC(0-inf) [1, 6]: 229 µg·h/mL | Vd/F [1, 6]: 0.45 L/kg | half-life [1, 6]: 9.8 h | AUC(0-t) [1, 7]: 90.5 µg·h/mL | AUC(0-inf) [1, 8]: 130 µg·h/mL | Vd/F [1, 8]: 0.53 L/kg | half-life [1, 8]: 6.6 h | decrease in Cmax [1, 9]: 22% and 22.1% | increase in CL/F [1, 9]: 75.4% | extrapolated AUC from the last blood sampling time to infinity (AUCt−∞) [1]: less than 5% | inter-individual variability of plasma concentrations [1]: 50.6 to 127.6% | t1/2z GMR (90 % CI) [1, 10]: 0.71 (0.45, 1.13)
Compound: Cc1cccc(C)c1OCC(=O)N[C@@H](Cc1ccccc1)[C@@H](O)C[C@H](Cc1ccccc1)NC(=O)[C@H](C(C)C)N1CCCNC1=O [Lopinavir, lopinavir]
90 % CI of the GMR of Cmax vs bioequivalent range of 0.8-1.25 ([1]; combination vs alone): outside the acceptable bioequivalent range

CL/F ([1]; 3-day artesunate-mefloquine alone (Period 1)): 1.08 (0.78, 1.37) L/h | CL/F ([1]; 3-day artesunate-mefloquine with LPV/r (Period 3)): 1.67 (1.03, 2.30) L/h | lower CL/F relative to previous study [1, 18]: 33.4% | smaller Vz/F relative to previous study [1, 18]: 40% | Tmax [1, 11]: 33 h | AUC(0-t) ([1]; both sexes, human, oral, 3-day artesunate-mefloquine alone (Period 1), read-out: AUC0–48h): 952 µg·h/mL | half-life [1, 19]: 344 h | AUC(0-inf) [1, 19]: 1160 µg·h/mL | Vd/F [1, 19]: 9.24 L/kg | AUC(0-t) ([1]; both sexes, human, oral, 3-day artesunate-mefloquine with LPV/r (Period 3), read-out: AUC0–48h): 678 µg·h/mL | Cmax [1, 14]: 2340 ng/mL | half-life [1, 20]: 336 h | AUC(0-inf) [1, 20]: 751 µg·h/mL | Vd/F [1, 20]: 12.8 L/kg | Cmax [1, 15]: 2900 ng/mL | Tmax [1, 16]: 33 h | decrease in AUC0−48h [1, 17]: 28.7% | decrease in AUC0−168h [1, 17]: 37.1% | decrease in AUC0−∞ [1, 17]: 35.2% | decrease in Cmax [1, 17]: 19.3% | increase in CL/F [1, 17]: 54.6% | increase in Vz/F [1, 17]: 37.9% | reduction in Cmax and systemic exposure [1, 17]: 19–37% | extrapolated AUC from the last blood sampling time to infinity (AUCt−∞) [1]: less than 10% | inter-individual variability of plasma concentrations [1]: 34.2 to 96.9% | t1/2z GMR (90 % CI) ([1]; with LPV/r vs alone): 1.14 (0.90, 1.45)
Compound: OC(c1cc(C(F)(F)F)nc2c(C(F)(F)F)cccc12)C1CCCCN1 (centres unmarked) [Mefloquine, mefloquine]
90 % CI of the GMR of AUC0−168h vs bioequivalent range of 0.8-1.25 ([1]; combination vs alone): outside the acceptable bioequivalent range | 90 % CI of the GMR of AUC0−∞ vs bioequivalent range of 0.8-1.25 ([1]; combination vs alone): outside the acceptable bioequivalent range | 90 % CI of the GMR of Cmax vs bioequivalent range of 0.8-1.25 ([1]; combination vs alone): outside the acceptable bioequivalent range

AUC0–12h [1, 3]: 8.11 (5.71, 10.50) μg h/mL | Tmax [1, 3]: 4.0 (3.1, 4.8) h | CL/F [1, 3]: 9.27 (4.74, 13.80) L/h | Tmax [1, 4]: 4.0 (3.1, 4.8) h | CL/F [1, 4]: 21.24 (8.71, 33.77) L/h | Cmax [1, 5]: 1530 ng/mL | AUC(0-inf) [1, 6]: 10.8 µg·h/mL | Vd/F [1, 6]: 0.97 L/kg | half-life [1, 6]: 4.3 h | AUC(0-t) [1, 7]: 4.49 µg·h/mL | Cmax ([1]; both sexes, human, oral, LPV/r with 3-day artesunate-mefloquine (Period 3), read-out: Cmax): 680 ng/mL | AUC(0-inf) [1, 8]: 4.71 µg·h/mL | Vd/F [1, 8]: 1.75 L/kg | half-life [1, 8]: 3.7 h | decrease in AUC0–12h [1, 9]: 44.6% | decrease in AUC0−∞ [1, 9]: 56.3% | decrease in Cmax [1, 9]: 54.9% | increase in CL/F [1, 9]: 129.1% | increase in Vz/F [1, 9]: 80.4% | extrapolated AUC from the last blood sampling time to infinity (AUCt−∞) [1]: less than 5% | inter-individual variability of plasma concentrations [1]: 21.3 to 62.9% | t1/2z GMR (90 % CI) [1, 10]: 0.87 (0.68, 1.11)
Compound: CC(C)c1nc(CN(C)C(=O)N[C@H](C(=O)N[C@@H](Cc2ccccc2)C[C@H](O)[C@H](Cc2ccccc2)NC(=O)OCc2cncs2)C(C)C)cs1 [Ritonavir, ritonavir]
90 % CI of the GMR of AUC0−12h vs bioequivalent range of 0.8-1.25 ([1]; combination vs alone): outside the acceptable bioequivalent range | 90 % CI of the GMR of AUC0−∞ vs bioequivalent range of 0.8-1.25 ([1]; combination vs alone): outside the acceptable bioequivalent range | 90 % CI of the GMR of Cmax vs bioequivalent range of 0.8-1.25 ([1]; combination vs alone): outside the acceptable bioequivalent range

Source: publication PMC4600319 (Malaria Journal, 2015)
